Reference: patent US20060154243A1 (priority 2003, published 2006)

Legend:
Assay type in all cases: binding, human
[1] = test system: serum 1a (individual 1, early serum)
[2] = test system: serum 1b (individual 1, late serum)
[3] = test system: serum 2 (individual 2)
[4] = test system: serum 6 (individual 6)
[5] = test system: serum 37 (individual 37)
[6] = test system: serum 62 (individual 62)
[7] = test system: serum London
[8] = test system: serum SARS-yellow
[9] = test system: serum SARS-green
[10] = test system: control serum LUMC (pooled serum of ten healthy hospital workers)
[11] = test system: control serum Blood-bank (commercial negative donor pooled serum)

Sequence | Binding of serum 1a to linear peptides of Orf14 of SARS-CoV TOR2 [1] | Binding of serum 1b to linear peptides of Orf14 of SARS-CoV TOR2 [2] | Binding of serum 2 to linear peptides of Orf14 of SARS-CoV TOR2 [3] | Binding of serum 6 to linear peptides of Orf14 of SARS-CoV TOR2 [4] | Binding of serum 37 to linear peptides of Orf14 of SARS-CoV TOR2 [5] | Binding of serum 62 to linear peptides of Orf14 of SARS-CoV TOR2 [6] | Binding of serum London to linear peptides of Orf14 of SARS-CoV TOR2 [7] | Binding of serum SARS-yellow to linear peptides of Orf14 of SARS-CoV TOR2 [8] | Binding of serum SARS-green to linear peptides of Orf14 of SARS-CoV TOR2 [9] | Control serum LUMC linear peptides [10] | Control serum LUMC looped peptides [10] | Control Serum Blood-Bank Looped peptides [11] | Control serum Blood-bank linear peptides [11]
AEAAVKPLLAPHHVV | 0.7 | 0.5 | 1.3 | 0.6 | 0.8 | 0.8 | 0.8 | 0.8 | 0.8 | 1.0 | 0.6 | 0.6 | 0.8
PLLAPHHVVAVIQEI | 0.5 | 0.4 | 0.4 | 0.4 | 0.6 | 0.4 | 0.5 | 0.4 | 0.2 | 0.5 | 0.6 | 0.6 | 0.4
HVVAVIQEIQLLAAV | 0.5 | 0.4 | 0.5 | 0.4 | 0.6 | 0.3 | 0.4 | 0.4 | 0.1 | 0.5 | 0.4 | 0.6 | 0.4
LAPHHVVAVIQEIQL | 0.5 | 0.4 | 0.4 | 0.4 | 0.5 | 0.4 | 0.4 | 0.4 | 0.1 | 0.6 | 0.5 | 0.5 | 0.3
IQEIQLLAAVGEILL | 0.5 | 0.4 | 0.4 | 0.4 | 0.7 | 0.4 | 0.3 | 0.4 | 0.3 | 0.6 | 0.5 | 0.6 | 0.4
VIQEIQLLAAVGEIL | 0.5 | 0.4 | 0.4 | 0.3 | 0.6 | 0.4 | 0.4 | 0.3 | 0.5 | 0.6 | 0.9 | 0.5 | 0.4
HHVVAVIQEIQLLAA | 0.4 | 0.4 | 0.4 | 0.4 | 0.5 | 0.3 | 0.4 | 0.4 | 0.2 | 0.4 | 0.4 | 0.5 | 0.4
EAEAAVKPLLAPHHV | 0.5 | 0.3 | 0.7 | 0.4 | 0.5 | 0.4 | 0.6 | 0.2 | 0.4 | 0.4 | 0.6 | 0.7 | 0.4
MLPPCYNFLKEQHCQ | 0.4 | 0.4 | 0.3 | 0.5 | 0.5 | 0.3 | 0.4 | 0.2 | 0.2 | 0.5 | 0.6 | 0.7 | 0.4
LLAAVGEILLLEWLA | 0.5 | 0.4 | 0.4 | 0.4 | 0.6 | 0.4 | 0.4 | 0.4 | 0.1 | 0.6 | 0.6 | 0.6 | 0.5
QEIQLLAAVGEILLL | 0.5 | 0.4 | 0.5 | 0.4 | 0.6 | 0.4 | 0.3 | 0.5 | 0.2 | 0.7 | 0.5 | 0.6 | 0.4
IQLLAAVGEILLLEW | 0.5 | 0.4 | 0.5 | 0.4 | 0.6 | 0.4 | 0.4 | 0.4 | 0.2 | 0.6 | 0.5 | 0.6 | 0.5
KPLLAPHHVVAVIQE | 0.5 | 0.4 | 0.4 | 0.4 | 0.6 | 0.4 | 0.4 | 0.4 | 0.3 | 0.6 | 0.6 | 0.6 | 0.5
QREAEAAVKPLLAPH | 0.4 | 0.3 | 0.4 | 0.5 | 0.4 | 0.3 | 0.4 | 0.2 | 0.3 | 0.4 | 0.7 | 0.7 | 0.4
